Measurements as given in patent publication US20080207592A1, “Novel 1,4-benzothiazepine-1,1-dioxide derivative having improved properties, method for the production thereof, medicaments containing said compound, and use thereof” (SANOFI-AVENTIS DEUTSCHLAND GMBH, priority 2005, published 2008).

Molecular target: T1, recombinantly expressed human sodium-dependent ileal bile acid transporter (IBAT) (Homo sapiens, UniProt Q12908)
T1 construct: Bases 599 to 1645 correspond to the complete coding region of the human IBAT; expressed in transfected cells
T1 sequence (Q12908 1-348): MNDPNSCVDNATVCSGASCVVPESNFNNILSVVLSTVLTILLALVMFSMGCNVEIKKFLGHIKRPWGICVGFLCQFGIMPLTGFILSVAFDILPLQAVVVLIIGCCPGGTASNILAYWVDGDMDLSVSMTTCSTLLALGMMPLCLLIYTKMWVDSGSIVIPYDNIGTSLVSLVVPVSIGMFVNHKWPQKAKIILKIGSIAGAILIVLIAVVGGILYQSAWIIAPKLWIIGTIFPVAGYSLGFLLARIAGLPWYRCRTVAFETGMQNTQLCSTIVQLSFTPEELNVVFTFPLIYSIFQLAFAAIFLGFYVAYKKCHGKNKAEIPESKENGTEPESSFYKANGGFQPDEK
Assay: in vitro IBAT inhibition test ([3H]-taurocholic acid uptake into CHO-hIBAT cells)
Assay type: cell-based
Conditions: for IC50: CHO-hIBAT cells, taurocholic acid 10 μM, 60 min at room temperature
Description: Biological testing of the compound A according to the invention was carried out using the in vitro IBAT inhibition test. This test examines the effect of the compound according to the invention on the transport activity of the recombinantly expressed human sodium-dependent ileal bile acid transporter (IBAT=ileal Na^+/bile acid contransporter, ASBT=apical sodium-dependent bile acid transporter, SLC10A2=solute carrier family 10, member 2).
The cDNA (complementary deoxyribonucleic acid) of human IBAT was cloned using standard methods of molecular biology as described, for example, in Molecular Cloning: A Laboratory Manual, by Joseph Sambrook and David Russell, and introduced into the pcDNA1 vector from Invitrogen. […] Bases 599 to 1645 correspond to the complete coding region of the human IBAT.
The expression vector for the human IBAT was introduced by means of stable transfection into CHO (Chinese hamster ovary) cells. To select single cell clones, 400 μg/ml of geneticin was added to the cell culture medium (Ham's F12 medium supplemented with 10% fetal calf serum, 100 units/ml of penicillin, 100 units/ml of streptomycin). The functionality of the single cell clones resulting from the selection was tested via their uptake activity for radioactively labeled taurocholic acid ([^3H]-TCA). […]
CHO-hIBAT cells were sown at a concentration of 40 000 cells per well in cell culture medium in poly-D-lysine-coated 96-well plates and cultivated for 24 h. […] Finally, 100 μl of scintillation fluid were added to each well, and the radioactivity taken up into the cells was determined in a MicroBeta scintillation microplate reader from Wallac.
The half-maximal inhibitory effect of the test compound (IC50 value, inhibitory concentration 50) was determined as follows:
1. […] This is the value measured in the absence of substance, measured in sodium-comprising transport assay buffer.
2. […] This is the value measured in the absence of substance, measured in sodium-free transport assay buffer. […]

Row | SMILES | IC50 [µM] | activity compared to comparative example from EP 1 169 313 (higher) (relative to compound 11a of EP 1 169 313, from IC50 (human IBAT)) [%]
1 | CCCCC1(CCCC)CS(=O)(=O)c2ccc(N(C)C)cc2[C@@H](c2cccc(NC(=O)[C@H](O)[C@@H](O)[C@H](O)[C@H](O)CO)c2)N1 [compound 11a, reference compound] | 0.319 | –
2 | CCCCC1(CCCC)CS(=O)(=O)c2ccc(N(C)C)cc2[C@@H](c2cccc(NC(=O)NC[C@H](O)[C@@H](O)[C@H](O)[C@H](O)CO)c2)N1 [Example A] | 0.155 | 206
